Measured values reported in ChEMBL document CHEMBL1149616, “Antiproliferative, low-calcemic, fluorinated sulfone analogs of 1alpha,25-dihydroxyvitamin D3: chemical synthesis and biological evaluation” (Bioorg Med Chem, 2007).
Calls of active or inactive are those of the source. The rule behind the calls is not given here.

How the values were obtained:
Keratinocyte [1] = assay: Antiproliferative activity against mouse keratinocytes at 3 to 7 nM; type: functional, cell-based
Keratinocyte [2] = assay: Antiproliferative activity against mouse keratinocytes at 7 nM; type: functional, cell-based

In the case of `C=C1/C(=C\C=C2/CCC[C@]3(C)[C@@H]([C@@H](C)OCCCS(=O)(=O)C(F)(F)F)CC[C@@H]23)C[C@@H](O)C[C@@H]1O`, the Activity (Keratinocyte [1]) is reported as “Active”.

`C=C1/C(=C\C=C2/CCC[C@]3(C)C([C@H](C)CCCS(=O)(=O)C(F)(F)F)=CC[C@@H]23)C[C@@H](O)C[C@@H]1O` was tested, and the Activity (Keratinocyte [2]) was “Active”.
